# Laboratory results taken from patent US20220288034A1, “METHOD OF REDUCING ABERRANT IMMUNE RESPONSE OR RISK OF PROGRESSION IN COVID-19” (CELLTAXIS, LLC, priority 2021, published 2022).
# Target: T1, LTA4H (Homo sapiens, UniProt P09960)
# T1 sequence (P09960 1-611): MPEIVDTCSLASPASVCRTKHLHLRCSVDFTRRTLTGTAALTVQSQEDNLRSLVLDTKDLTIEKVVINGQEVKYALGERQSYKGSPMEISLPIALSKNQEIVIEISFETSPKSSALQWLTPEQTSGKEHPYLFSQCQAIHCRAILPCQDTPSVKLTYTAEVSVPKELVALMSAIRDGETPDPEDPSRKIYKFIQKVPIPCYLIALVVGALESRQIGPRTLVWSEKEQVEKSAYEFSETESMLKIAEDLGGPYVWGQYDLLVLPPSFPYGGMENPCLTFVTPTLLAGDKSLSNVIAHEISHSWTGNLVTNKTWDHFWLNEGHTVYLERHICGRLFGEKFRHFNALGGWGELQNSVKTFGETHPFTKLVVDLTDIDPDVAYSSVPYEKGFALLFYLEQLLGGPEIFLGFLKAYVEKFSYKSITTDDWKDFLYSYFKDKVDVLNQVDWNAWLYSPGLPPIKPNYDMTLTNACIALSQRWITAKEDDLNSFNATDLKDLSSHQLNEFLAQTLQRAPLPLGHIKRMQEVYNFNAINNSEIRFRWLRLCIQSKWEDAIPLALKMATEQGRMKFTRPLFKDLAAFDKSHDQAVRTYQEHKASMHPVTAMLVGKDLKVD
# Test: In vitro inhibition of epoxide hydrolase enzymatic activity of LTA4H (LTB4 production)
# Format: biochemical
structure (smiles),measurement,value
"O=C(O)c1ccc(CN2C[C@@H]3C[C@H]2CN3Cc2ccc(Oc3ccc(-c4ncco4)cc3)cc2)cc1 [acebilustat, 4-{[(1 S,4S)-5-({4-[4-oxazol-2-yl-phenoxy]phenyl}methyl)-2,5-diazabicyclo[2.2.1]heptan-2-yl]methyl}benzoic acid]",IC50,0.0131 µM
